This note sets out measurements from PubChem BioAssay AID1963841 (Molecular Pharmacology Branch, DTP, NCI, 2024).

“And” between values parts separate entries of the source, which are not always exact repeats. Equal entries are not always repeated.

The IC50 is the concentration needed to halve the response being measured. One may read the viability, T/C as the ratio of treated to control.

This assay concerns 439559-082-T-J2-PDC spheroid viability. Description: Anticancer human tumor 439559-082-T-J2-PDC patient-derived colon adenocarcinoma cell line growth inhibition [POLQ]. Particulars: spheroids with HUVEC and MSC; for viability, T/C: stronger effect = lower value. Here is the method: Multicellular complex tumor spheroid response to Polymerase (POL) inhibitors (novobiocin, ART-558, RP6685) in combination with a variety of drugs and investigational agents in selected tumor cell lines
The POL inhibitors (novobiocin, ART-558, and RP6685) were evaluated both individually and in combination with standard of care and investigational anticancer small molecules within a complex spheroid model of solid tumors. . Complex spheroids include a stromal component modeled by human endothelial cells (HUVEC) and fibroblasts modeled by human mesenchymal stem cells (MSCs). The concentration ranges selected for each drug and investigational agent were based upon clinically achievable concentrations if the clinical Cmax of the agent was known.
Compounds. The drugs and investigational agents: novobiocin (NSC847541), ART-558 (NSC835418), RP-6685 (NSC848927), peposertib (NSC802822), ceralasertib (NSC780249), elimusertib (NSC800525), camonsertib (NSC841442), AZD-1390 (NSC803789), olaparib (NSC753686), talazoparib (NSC767125), rucaparib (NSC756644), sotorasib (NSC818433), MRTX-1133 (NSC836407), SN-38 (NSC673596), topotecan (NSC609699), epotoside (NSC141540), doxorubicin (NSC123127), gemcitabine (NSC613327), 5-fluorouracil (NSC19893), paclitaxel (NSC125973), vemurafenib (NSC761431), MSA-2 (NSC828583), SN-011 (NSC837082), adavosertib (NSC754352), prexasertib (NSC758257), carboplatin (NSC241240) and oxaliplatin (NSC266046), were obtained from the National Cancer Institute (NCI) Developmental Therapeutics Program Chemical Repository (21). The FDA-approved anticancer drug set is available from the Developmental Therapeutics Program at https://dtp.cancer.gov/organization/dscb/obtaining/. […] The stock solutions were prepared in dimethyl sulfoxide (DMSO, Sigma-Aldrich, St. Louis, MO, cat. D2650), except for the platinum compounds which were prepared in saline (Quality Biological, Gaithersburg, MD, cat. 114-055-101), at 800-fold the tested concentration and stored at -70 degrees C prior to their use. All drugs and investigational agents were tested over a range starting from a high concentration at or near the clinical Cmax and decreasing in half-log increments. If the clinical Cmax for an agent had not been determined, the highest concentration tested was 10 microM, except for SN-38, which was tested at a high concentration of 1 microM.
Cell Culture. All cells were maintained in an incubator at 37 degrees C and 5% CO2 with 95% humidity. The PDC lines were cultured according to standard operating procedures established by the NCI PDMR (https://pdmr.cancer.gov). Table 3 of the manuscript, lists the cell lines along with the number of the three cell types plated to form the mct-spheroids and media for tumor cell growth. After thawing, all PDC lines, except 997537-175-T-J1-PDC and 415267-285-R-J2-PDC, were cultured in Matrigel-coated flasks prepared with a working solution of 1X Ham's F-12 nutrient mix, without supplementation (Thermo Fisher Scientific, cat. 11765054), 100 U/mL penicillin-streptomycin (Thermo Fisher Scientific, cat. 15140122), and 2.5% Matrigel (Corning Inc., Corning, NY, cat. 354248) for the first three passages. The two PDC lines 997537-175-T-J1-PDC and 415267-285-R-J2-PDC were cultured on uncoated flasks. The 857933-349-R-J2-PDC line was cultured in 6C/Colon 1B media containing advanced DMEM/F-12 (Thermo Fisher Scientific, cat. 12634028), 10 mM HEPES (Thermo Fisher Scientific, cat. 15630080), 1X GlutaMAX supplement (Thermo Fisher Scientific, cat. 35050061), 0.1 mg/mL primocin (InvivoGen, San Diego, CA, cat. ant-pm-2), 10% defined fetal bovine serum, heat inactivated (HyClone Laboratories Inc., Logan, UT, cat. SH30070.03HI), 50% L-WRN conditioned media (ATCC, cat. CRL-3276), 1.25 mM N-Acetyl-L-cysteine (Sigma-Aldrich, cat. A9165), 10 mM nicotinamide (Sigma-Aldrich, cat. N0636), 1X B-27 supplement (Thermo Fisher Scientific, cat. 17504044), 1X N-2 supplement (Thermo Fisher Scientific, cat. […]
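Also: spheroids exposed to compounds for seven days before readout.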

On to `CC1COCCN1c1cc(C2(S(C)(=N)=O)CC2)nc(-c2ccnc3[nH]ccc23)n1` (configuration not stated) + Cc1cccc(N(C)C(=O)C2C(O)CCN2c2nc(C)cc(C(F)(F)F)c2C#N)c1, for which the 50% inhibitory concentration (IC50) was over 10 µM (curve of first compound, second compound 0.0316 µM); over 10 µM (curve of first compound, second compound 0.1 µM); over 10 µM (curve of first compound, second compound 0.316 µM); over 10 µM (curve of first compound, second compound 1 µM); over 10 µM (curve of first compound, second compound 3.16 µM); over 10 µM (curve of first compound, second compound 10 µM). Moreover, the viability, T/C (second compound 0.0316 µM, first compound 0.0316 µM) amounted to 105%; the viability, T/C (second compound 0.0316 µM, first compound 0.1 µM) is 102%; the viability, T/C (second compound 0.0316 µM, first compound 0.316 µM) was 104%; the viability, T/C (second compound 0.0316 µM, first compound 1 µM) worked out at 92.4%; the viability, T/C (second compound 0.0316 µM, first compound 3.16 µM) is 83.4%; the viability, T/C (second compound 0.0316 µM, first compound 10 µM) came to 70.5%. The viability, T/C is, setting by setting: (second compound 0.1 µM, first compound 0.0316 µM) 98.6%; (second compound 0.1 µM, first compound 0.1 µM) 101%; (second compound 0.1 µM, first compound 0.316 µM) 97.9%; (second compound 0.1 µM, first compound 1 µM) 101%; (second compound 0.1 µM, first compound 3.16 µM) 84.7%; (second compound 0.1 µM, first compound 10 µM) 70.4%. Besides, the viability, T/C worked out at 97.3% (second compound 0.316 µM, first compound 0.0316 µM); 97.8% (second compound 0.316 µM, first compound 0.1 µM); 103% (second compound 0.316 µM, first compound 0.316 µM); 94.5% (second compound 0.316 µM, first compound 1 µM); 94.2% (second compound 0.316 µM, first compound 3.16 µM); 75% (second compound 0.316 µM, first compound 10 µM). Further, the viability, T/C was 102% (second compound 1 µM, first compound 0.0316 µM); 98.2% (second compound 1 µM, first compound 0.1 µM); 101% (second compound 1 µM, first compound 0.316 µM); 92.1% (second compound 1 µM, first compound 1 µM); 89.1% (second compound 1 µM, first compound 3.16 µM); 69.2% (second compound 1 µM, first compound 10 µM). Also, the viability, T/C reads like this: (second compound 3.16 µM, first compound 0.0316 µM) 101%; (second compound 3.16 µM, first compound 0.1 µM) 103%; (second compound 3.16 µM, first compound 0.316 µM) 99.9%; (second compound 3.16 µM, first compound 1 µM) 96.6%; (second compound 3.16 µM, first compound 3.16 µM) 92.2%; (second compound 3.16 µM, first compound 10 µM) 68.3%. Besides, the viability, T/C (second compound 10 µM, first compound 0.0316 µM) was 95%; the viability, T/C (second compound 10 µM, first compound 0.1 µM) came to 89.6%; the viability, T/C (second compound 10 µM, first compound 0.316 µM) is 96%; the viability, T/C (second compound 10 µM, first compound 1 µM) was 96.6%; the viability, T/C (second compound 10 µM, first compound 3.16 µM) was found to be 80.5%; the viability, T/C (second compound 10 µM, first compound 10 µM) is 59.1%.

For `Nc1ccc(C#CCN(C(=O)Cc2ncc(C(F)(F)F)cc2C(F)(F)F)c2ccc(F)cc2)nn1`, the viability, T/C runs as follows: (compound 0.0316 µM) 96.1% [middle of 13 runs]; (compound 0.1 µM) 97.8% [middle of 13 runs]; (compound 0.316 µM) 96% [middle of 13 runs]; (compound 1 µM) 100% [middle of 13 runs]; (compound 3.16 µM) 99.5% [middle of 13 runs]. The IC50 (compound alone, run of 12/05/2023) was over 10 µM.

`C#Cc1c(F)ccc2cc(O)cc(-c3ncc4c(N5CC6CCC(C5)N6)nc(OCC56CCCN5CC(F)C6)nc4c3F)c12` (configuration not stated): the viability, T/C (compound 0.0316 µM) was 98.3% and 86.1% and 91.5%; the viability, T/C (compound 0.1 µM) was 87.7% and 85.2% and 81.3%; the viability, T/C (compound 0.316 µM) is 72.3% and 64.9% and 72.9%; the viability, T/C (compound 1 µM) is 66.5% and 68.4% and 70.6%; the viability, T/C (compound 3.16 µM) was 59.8% and 69.2% and 61.3%; the viability, T/C (compound 10 µM) was 53% and 67.8% and 51%. Further, under “curve of compound”, the half-maximal inhibitory concentration (IC50) was over 10 µM.

On to `COC1C(OC(N)=O)C(O)C(Oc2ccc3c(O)c(NC(=O)c4ccc(O)c(CC=C(C)C)c4)c(=O)oc3c2C)OC1(C)C` (configuration not stated), for which the viability, T/C was 102% [middle of 13 runs] (compound 0.0316 µM); 96.7% [middle of 13 runs] (compound 0.1 µM); 101% [middle of 13 runs] (compound 0.316 µM); 101% [middle of 13 runs] (compound 1 µM); 100% [middle of 12 runs] (compound 3.16 µM); 105% [middle of 13 runs] (compound 10 µM). Where the note is “compound alone, run of 11/27/2023”, the IC50 was over 10 µM.
